Read-outs that look alike come from different tables or passages of the source.
Columns and labels:
[1] = system: VEGFR2 in HUVEC (human umbilical vein endothelial cells); assay: VEGFR2 Cellular Assay (FLIPR, VEGF induced increases in intracellular calcium); format: cell-based
Method: VEGFR2 Cellular Assay Automated FLIPR (Fluorometric Imaging Plate Reader) technology was used to screen for inhibitors of VEGF induced increases in intracellular calcium levels in fluorescent dye loaded endothelial cells. HUVEC (human umbilical vein endothelial cells) (Clonetics) were seeded in 384-well fibronectin coated black-walled plates overnight @37° C./5% CO2. Cells were loaded with calcium indicator Fluo-4 for 45 minutes at 37° C. Cells were washed 2 times (EIx405, Biotek Instruments) to remove extracellular dye. For screening, cells were pre-incubated with test agents for 30 minutes, at a single concentration (10 uM) or at concentrations ranging from 0.0001 to 10.0 uM followed by VEGF165 stimulation (10 ng/mL). Changes in fluorescence at 516 nm were measured simultaneously in all 384 wells using a cooled CCD camera. Data were generated by determining max-min fluorescence levels for unstimulated, stimulated, and drug treated samples. IC50 values for test compounds were calculated from % inhibition of VEGF stimulated responses in the absence of inhibitor.

[2] = target: purified cytoplasmic domain KDR protein (VEGFR2) (Homo sapiens (Human), UniProt P35968); assay: VEGFR2 Kinase Assay; format: biochemical; conditions: 2.7 μM ATP, poly-Glu-Tyr (4:1) substrate, 15 minute incubation at 30° C.; read-out: Enzyme VEGFR2 IC50
Chain of purified cytoplasmic domain KDR protein (VEGFR2) (P35968 786-1356): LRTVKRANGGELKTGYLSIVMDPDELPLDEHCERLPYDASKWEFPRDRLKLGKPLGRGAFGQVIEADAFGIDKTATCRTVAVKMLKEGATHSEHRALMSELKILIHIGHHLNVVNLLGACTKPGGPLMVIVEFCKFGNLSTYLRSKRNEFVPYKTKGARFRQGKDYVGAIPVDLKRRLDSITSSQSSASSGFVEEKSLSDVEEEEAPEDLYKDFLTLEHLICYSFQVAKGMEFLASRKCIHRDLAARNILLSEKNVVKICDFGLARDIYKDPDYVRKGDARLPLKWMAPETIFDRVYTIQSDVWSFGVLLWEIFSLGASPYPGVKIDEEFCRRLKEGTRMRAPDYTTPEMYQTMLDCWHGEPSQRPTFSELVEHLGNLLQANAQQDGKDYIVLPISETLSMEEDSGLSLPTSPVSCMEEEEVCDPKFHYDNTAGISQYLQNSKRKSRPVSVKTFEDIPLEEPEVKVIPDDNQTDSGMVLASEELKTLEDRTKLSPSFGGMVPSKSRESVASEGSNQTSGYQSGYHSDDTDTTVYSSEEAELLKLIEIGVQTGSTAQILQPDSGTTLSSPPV
Method: VEGFR2 Kinase Assay Biochemical KDR kinase assays were performed in 96 well microtiter plates that were coated overnight with 75 μg/well of poly-Glu-[…]:1) in 10 mM Phosphate Buffered Saline (PBS), pH 7.4. […] Reactions were carried out in 100 μL reaction volumes containing 2.7 μM ATP in kinase buffer (50 mM Hepes buffer pH 7.4, 20 mM MgCl2, 0.1 mM MnCl2 and 0.2 mM Na3VO4). […] Reactions were initiated by the addition 20 ul per well of kinase buffer containing 200-300 ng purified cytoplasmic domain KDR protein (BPS Bioscience, San Diego, Calif.). Following a 15 minute incubation at 30° C., the reactions were washed 2 mls per well PBS-T. 100 μl of a monoclonal anti-phosphotyrosine antibody-peroxidase conjugate diluted 1:10,000 in PBS-T was added to the wells for 30 minutes. Following a 2 mls per well wash with PBS-Tween-20, 100 μl of O-Phenylenediamine Dihydrochloride in phosphate-citrate buffer, containing urea hydrogen peroxide, was added to the wells for 7-10 minutes as a colorimetric substrate for the peroxidase. […] IC50 values for compound inhibition were calculated directly from graphs of optical density (arbitrary units) versus compound concentration following subtraction of blank values.

[3] = target: purified cytoplasmic domain PDGFR-b protein (PDGFRβ) (Homo sapiens (Human), UniProt P09619); assay: PDGFRβ Kinase Assay; format: biochemical; conditions: 36 μM ATP, poly-Glu-Tyr (4:1) substrate, 60 minute incubation at 30° C.; read-out: Enzyme PDGFβ IC50
Chain of purified cytoplasmic domain PDGFR-b protein (PDGFRβ) (P09619 554-1106): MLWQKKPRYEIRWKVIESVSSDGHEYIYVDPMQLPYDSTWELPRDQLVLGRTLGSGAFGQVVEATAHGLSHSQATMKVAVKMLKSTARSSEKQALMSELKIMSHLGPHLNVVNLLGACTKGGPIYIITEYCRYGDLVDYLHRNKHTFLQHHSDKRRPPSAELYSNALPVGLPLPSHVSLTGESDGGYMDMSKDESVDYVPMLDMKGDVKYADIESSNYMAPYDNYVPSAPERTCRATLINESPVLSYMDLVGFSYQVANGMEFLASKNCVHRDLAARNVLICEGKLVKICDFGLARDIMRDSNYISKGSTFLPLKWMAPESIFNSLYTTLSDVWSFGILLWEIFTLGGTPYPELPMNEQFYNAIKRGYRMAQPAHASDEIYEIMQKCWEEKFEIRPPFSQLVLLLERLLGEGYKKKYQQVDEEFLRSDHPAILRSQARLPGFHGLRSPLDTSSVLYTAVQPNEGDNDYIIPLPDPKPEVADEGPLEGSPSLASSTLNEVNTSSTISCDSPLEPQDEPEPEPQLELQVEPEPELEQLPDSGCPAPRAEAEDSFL
Method: Biochemical PDGFRβ kinase assays were performed in 96 well microtiter plates that were coated overnight with 75 μg of poly-Glu-Tyr (4:1) in 10 mM Phosphate Buffered Saline (PBS), pH 7.4. […] Reactions were carried out in 100 μL reaction volumes containing 36 μM ATP in kinase buffer (50 mM Hepes buffer pH 7.4, 20 mM MgCl2, 0.1 mM MnCl2 and 0.2 mM Na3VO4). […] Reactions were initiated by the addition 20 ul per well of kinase buffer containing 200-300 ng purified cytoplasmic domain PDGFR-b protein (Millipore). Following a 60 minute incubation at 30° C., the reactions were washed 2 mls per well PBS-T. 100 μl of a monoclonal anti-phosphotyrosine antibody-peroxidase conjugate diluted 1:10,000 in PBS-T was added to the wells for 30 minutes. Following a 2 mls per well wash with PBS-Tween-20, 100 μl of O-Phenylenediamine Dihydrochloride in phosphate-citrate buffer, containing urea hydrogen peroxide, was added to the wells for 7-10 minutes as a colorimetric substrate for the peroxidase. […] IC50 values for compound inhibition were calculated directly from graphs of optical density (arbitrary units) versus compound concentration following subtraction of blank values.

[4] = read-out: Receptor VEGFR2 IC50 (nM)

IC50 [2] [µM]	IC50 [3] [µM]	SMILES	IC50 [1, 4] [nM]	IC50 ([1]; VEGF165 stimulation (10 ng/mL), 30 minutes pre-incubation, Fluo-4 calcium, read-out: Receptor VEGFR2 IC50) [nM]
		CCc1cccc(NC(=O)Nc2ccc(-c3cc4ccccc4n3C(N)=O)cc2)c1 [Example 1, 2-[4-({[(3-ethylphenyl)amino]carbonyl}amino)phenyl]-1H-indole-1-carboxamide]	13	
	0.019	NC(=O)n1c(-c2ccc(NC(=O)Nc3ccc(F)c(Cl)c3)cc2)cc2ccccc21 [Example 5, 2-[4-({[(3-chloro-4-fluorophenyl)amino]carbonyl}amino)phenyl]-1H-indole-1-carboxamide]		
	0.055	NC(=O)n1c(-c2ccc(NC(=O)Nc3cc(C(F)(F)F)ccc3F)cc2)cc2ccccc21 [Example 9, 2-{4-[({[2-fluoro-5-(trifluoromethyl)phenyl]amino}carbonyl)amino]phenyl}-1H-indole-1-carboxamide]		
0.023	0.011	Cc1ccc(NC(=O)Nc2ccc(-c3cc4ccccc4n3C(N)=O)cc2)cc1 [Example 11, 2-[4-({[(4-methylphenyl)amino]carbonyl}amino)phenyl]-1H-indole-1-carboxamide]		> 10000
0.174	0.118	Cc1ccccc1NC(=O)Nc1ccc(-c2cc3ccccc3n2C(N)=O)cc1 [Example 12, 2-[4-({[(2-methylphenyl)amino]carbonyl}amino)phenyl]-1H-indole-1-carboxamide]		
0.276		Cc1cccc(NC(=O)Nc2cccc(-c3cc4ccccc4n3C(N)=O)c2)c1 [Example 19, 2-[3-({[(3-methylphenyl)amino]carbonyl}amino)phenyl]-1H-indole-1-carboxamide]		
0.24		CCc1cccc(NC(=O)Nc2cccc(-c3cc4ccccc4n3C(N)=O)c2)c1 [Example 20, 2-[3-({[(3-ethylphenyl)amino]carbonyl}amino)phenyl]-1H-indole-1-carboxamide]		
0.254	3.31	NC(=O)n1c(-c2cccc(NC(=O)Nc3cccc(C(F)(F)F)c3)c2)cc2ccccc21 [Example 21, 2-{3-[({[3-(trifluoromethyl)phenyl]amino}carbonyl)amino]phenyl}-1H-indole-1-carboxamide]		
0.249	> 10	NC(=O)n1c(-c2cccc(NC(=O)Nc3ccc(F)c(Cl)c3)c2)cc2ccccc21 [Example 22, 2-[3-({[(3-chloro-4-fluorophenyl)amino]carbonyl}amino)phenyl]-1H-indole-1-carboxamide]		
0.334	3.03	Cc1ccc(F)c(NC(=O)Nc2cccc(-c3cc4ccccc4n3C(N)=O)c2)c1 [Example 23, 2-[3-({[(2-fluoro-5-methylphenyl)amino]carbonyl}amino)phenyl]-1H-indole-1-carboxamide]		
1.17		Cc1cccc(C(=O)Nc2cccc(-c3cc4ccccc4n3C(N)=O)c2)c1 [Example 24, 2-{3-[(3-methylbenzoyl)amino]phenyl}-1H-indole-1-carboxamide]		
	1.14	Cc1cccc(NC(=O)Nc2csc(-c3cc4ccccc4n3C(N)=O)c2)c1 [Example 26, 2-[4-({[(3-methylphenyl)amino]carbonyl}amino)-2-thienyl]-1H-indole-1-carboxamide]		
	0.152	NC(=O)n1c(-c2cc(NC(=O)Nc3cccc(C(F)(F)F)c3)cs2)cc2ccccc21 [Example 27, 2-{4-[({[3-(trifluoromethyl)phenyl]amino}carbonyl)amino]-2-thienyl}-1H-indole-1-carboxamide]		
0.06	0.264	CCc1cccc(NC(=O)Nc2csc(-c3cc4ccccc4n3C(N)=O)c2)c1 [Example 28, 2-[4-({[(3-ethylphenyl)amino]carbonyl}amino)-2-thienyl]-1H-indole-1-carboxamide]		
0.094	4.61	Cc1ccc(F)c(NC(=O)Nc2csc(-c3cc4ccccc4n3C(N)=O)c2)c1 [Example 29, 2-[4-({[(2-fluoro-5-methylphenyl)amino]carbonyl}amino)-2-thienyl]-1H-indole-1-carboxamide]		
0.083	> 10	NC(=O)n1c(-c2cc(NC(=O)Nc3ccc(F)c(Cl)c3)cs2)cc2ccccc21 [Example 30, 2-[4-({[(3-chloro-4-fluorophenyl)amino]carbonyl}amino)-2-thienyl]-1H-indole-1-carboxamide]		
	0.151	NC(=O)n1c(-c2cc(NC(=O)Nc3ccc(Cl)c(C(F)(F)F)c3)cs2)cc2ccccc21 [Example 31, 2-{4-[({[4-chloro-3-(trifluoromethyl)phenyl]amino}carbonyl)amino]-2-thienyl}-1H-indole-1-carboxamide]		
3.19	> 10	Cc1ccoc1C(=O)Nc1csc(-c2cc3ccccc3n2C(N)=O)c1 [Example 32, 2-{4-[(3-methyl-2-furoyl)amino]-2-thienyl}-1H-indole-1-carboxamide]		
3.65	> 10	Cc1ccc(F)c(C(=O)Nc2csc(-c3cc4ccccc4n3C(N)=O)c2)c1 [Example 33, 2-{4-[(2-fluoro-5-methylbenzoyl)amino]-2-thienyl}-1H-indole-1-carboxamide]		

SMILES	IC50 [2] [µM]	IC50 [3] [µM]	IC50 [1, 4] [nM]	IC50 ([1]; VEGF165 stimulation (10 ng/mL), 30 minutes pre-incubation, Fluo-4 calcium, read-out: Receptor VEGFR2 IC50) [nM]
COC(=O)c1ccc2cc(-c3ccc(NC(=O)Nc4cccc(C)c4)cc3)n(C(N)=O)c2c1 [Example 2, methyl 1-(aminocarbonyl)-2-[4-({[(3-methylphenyl)amino]carbonyl}amino)phenyl]-1H-indole-6-carboxylate]	0.005	0.01	11	
Cc1cccc(NC(=O)Nc2ccc(-c3cc4ccccc4n3C(N)=O)cc2)c1 [Example 3, 2-[4-({[(3-methylphenyl)amino]carbonyl}amino)phenyl]-1H-indole-1-carboxamide]	0.006	0.014	17	
NC(=O)n1c(-c2ccc(NC(=O)Nc3cccc(C(F)(F)F)c3)cc2)cc2ccccc21 [Example 6, 2-{4-[({[3-(trifluoromethyl)phenyl]amino}carbonyl)amino]phenyl}-1H-indole-1-carboxamide]	0.009	0.028	58	
Cc1ccc(F)c(NC(=O)Nc2ccc(-c3cc4ccccc4n3C(N)=O)cc2)c1 [Example 7, 2-[4-({[(2-fluoro-5-methylphenyl)amino]carbonyl}amino)phenyl]-1H-indole-1-carboxamide]	0.009	0.02	41	
COc1cccc(NC(=O)Nc2ccc(-c3cc4ccccc4n3C(N)=O)cc2)c1 [Example 8, 2-[4-({[(3-methoxyphenyl)amino]carbonyl}amino)phenyl]-1H-indole-1-carboxamide]	0.011	0.012	45	
NC(=O)n1c(-c2ccc(NC(=O)Nc3ccccc3)cc2)cc2ccccc21 [Example 10, 2-{4-[(anilinocarbonyl)amino]phenyl}-1H-indole-1-carboxamide]	0.022	0.023	150	

Source: patent publication US9353093B2, “Indole-1-carboxamides as kinase inhibitors” (Allergan, Inc., priority 2014, dated 2016)
